Laboratory results as given in ChEMBL document CHEMBL5226286, “The application of isatin-based multicomponent-reactions in the quest for new bioactive and druglike molecules” (Eur J Med Chem, 2021).
Converted amounts (≈) assume the structure as drawn. The source made the active and inactive calls. The rule behind the calls is not given here.

Experiments:
[1] = system: Candida albicans; test: Antifungal activity against Candida albicans; type: functional
[2] = system: Candida tropicalis; test: Antifungal activity against Candida tropicalis; type: functional
[3] = system: Nakaseomyces glabratus; test: Antifungal activity against Candida glabrata; type: functional
[4] = system: Pseudomonas aeruginosa; test: Antibacterial activity against multidrug resistant Pseudomonas aeruginosa 025; type: functional
[5] = system: Pseudomonas aeruginosa; test: Antibacterial activity against multidrug resistant Pseudomonas aeruginosa 034; type: functional
[6] = system: Bacillus subtilis; test: Antibacterial activity against Bacillus subtilis by agar well diffusion method; type: functional
[7] = system: Staphylococcus aureus; test: Antibacterial activity against Staphylococcus aureus by disc diffusion method; type: functional
[8] = system: Escherichia coli; test: Antibacterial activity against Escherichia coli by disc diffusion method; type: functional
[9] = system: Bacillus subtilis; test: Antibacterial activity against Bacillus subtilis; type: functional
[10] = system: Staphylococcus aureus; test: microbe, parasite or virus in culture
[11] = system: MDA-MB-231; test: cells; type: functional, cell-based; details: Homo sapiens
Description: Antiproliferative activity against human MDA-MB-231 cells

[12] = system: HeLa; test: Antiproliferative activity against human HeLa cells; type: functional, cell-based
[13] = system: Aspergillus niger; test: Antifungal activity against Aspergillus niger; type: functional
[14] = system: Aspergillus flavus; test: Antifungal activity against Aspergillus flavus; type: functional
[15] = system: Aspergillus fumigatus; test: Antifungal activity against Aspergillus fumigatus RCMB 02568 assessed as zone of inhibition; type: functional
[16] = system: Syncephalastrum racemosum; test: Antifungal activity against Syncephalastrum racemosum RCMB 05922 assessed as zone of inhibition; type: functional
[17] = system: Geotrichum candidum; test: Antifungal activity against Geotrichum candidum RCMB 05097 assessed as zone of inhibition; type: functional
[18] = system: Candida albicans; test: Antifungal activity against Candida albicans RCMB 05036 assessed as zone of inhibition; type: functional
[19] = system: Bacillus subtilis; test: Antibacterial activity against Bacillus subtilis ATCC 465; type: functional
[20] = system: Bacillus pumilus; test: Antibacterial activity against Bacillus pumilus PTCC 1114; type: functional
[21] = system: Micrococcus luteus; test: Antibacterial activity against Micrococcus luteus PTCC 1110; type: functional
[22] = system: Streptococcus mutans; test: Antibacterial activity against Streptococcus mutans PTCC 1601; type: functional
[23] = system: Staphylococcus epidermidis; test: Antibacterial activity against Staphylococcus epidermidis ATCC 12228; type: functional
[24] = system: Staphylococcus aureus; test: Antibacterial activity against Staphylococcus aureus ATCC 25923; type: functional
[25] = system: Escherichia coli; test: Antimicrobial activity against Escherichia coli ATCC 25922; type: functional
[26] = system: Enterococcus faecalis; test: Antibacterial activity against Enterococcus faecalis ATCC 29737; type: functional
[27] = system: Klebsiella pneumoniae; test: Antibacterial activity against Klebsiella pneumoniae ATCC 29655; type: functional
[28] = system: Pseudomonas aeruginosa; test: Antibacterial activity against Pseudomonas aeruginosa ATCC 85327; type: functional
[29] = Antioxidant activity assessed as DPPH radical scavenging activity at 1 mg/ml relative to control; type: functional
[30] = system: A549; test: Antiproliferative activity against human A549 cells; type: functional, cell-based
[31] = system: Streptococcus pneumoniae; test: Antibacterial activity against Streptococcus pneumoniae incubated for 24 to 48 hrs by agar diffusion well method; type: functional; details: time 24-48 hrs
[32] = system: Bacillus subtilis; test: Antibacterial activity against Bacillus subtilis incubated for 24 to 48 hrs by agar diffusion well method; type: functional; details: time 24-48 hrs
[33] = system: Pseudomonas aeruginosa; test: Antibacterial activity against Pseudomonas aeruginosa incubated for 24 to 48 hrs by agar diffusion well method; type: functional; details: time 24-48 hrs
[34] = system: Escherichia coli; test: Antibacterial activity against Escherichia coli incubated for 24 to 48 hrs by agar diffusion well method; type: functional; details: time 24-48 hrs
[35] = system: Aspergillus fumigatus; test: Antifungal activity against Aspergillus fumigatus RCMB 02568; type: functional
[36] = system: Syncephalastrum racemosum; test: Antifungal activity against Syncephalastrum racemosum RCMB 05922; type: functional
[37] = system: Geotrichum candidum; test: Antifungal activity against Geotrichum candidum RCMB 05097; type: functional
[38] = system: Candida albicans; test: Antifungal activity against Candida albicans RCMB 05036; type: functional
[39] = system: A549; test: Cytotoxicity against human A549 cells incubated for 48 hrs by MTT assay; type: functional, cell-based; details: A549, 48 h
[40] = system: HeLa; test: Cytotoxicity against human HeLa cells incubated for 48 hrs by MTT assay; type: functional, cell-based
[41] = system: MCF7; test: Cytotoxicity against human MCF7 cells incubated for 48 hrs by MTT assay; type: functional, cell-based; details: MCF7, 48 h
[42] = system: DU-145; test: Cytotoxicity against human DU-145 cells incubated for 48 hrs by MTT assay; type: functional, cell-based; details: DU-145, 48 h
[43] = system: MCF7; test: Cytotoxicity against human MCF7 cells; type: functional, cell-based

O=C(c1ccc(-c2ccc(F)cc2F)cc1)C1C(c2ccc(Cl)cc2)C2CCCN2C12C(=O)Nc1ccccc12 (stereo unspecified)
MIC [1]: 12.5 µg/mL (≈ 22.5 µM)
MIC [2]: 25 µg/mL (≈ 45 µM)
MIC [3]: 25 µg/mL (≈ 45 µM)

O=C(O)c1cn(C2CC2)c2cc(N3CCNCC3)c(F)cc2c1=O [CIPROFLOXACIN]
MIC [4]: 32 µg/mL (≈ 96.6 µM)
MIC [5]: 32 µg/mL (≈ 96.6 µM)
MIC [6]: 6.25 µg/mL (≈ 18.9 µM)
MIC [7]: 50 µg/mL (≈ 151 µM)
MIC [8]: 25 µg/mL (≈ 75.4 µM)

Cc1nn(-c2ccccc2)c2c1C1(C(=O)Nc3ccc(Br)cc31)c1c(C)nn(-c3ccccc3)c1O2
MIC [9]: 256 µg/mL (≈ 475 µM)
MIC [10]: 64 µg/mL (≈ 119 µM)

CCC(C)Cn1cc(CN2C(=O)C3(C(C#N)=C(N)Oc4c3ccc3[nH]c5ccccc5c43)c3ccccc32)nn1 (stereo unspecified)
IC50 [11]: 3.8 µM
IC50 [12]: 14.9 µM

COc1ccccc1C1C2CCCN2C2(C(=O)Nc3ccccc32)C1C(=O)c1ccc(-c2ccc(F)cc2F)cc1 (stereo unspecified)
MIC [1]: 12.5 µg/mL (≈ 22.7 µM)
MIC [2]: 12.5 µg/mL (≈ 22.7 µM)
MIC [3]: 12.5 µg/mL (≈ 22.7 µM)

OC(Cn1cncn1)(Cn1cncn1)c1ccc(F)cc1F [FLUCONAZOLE]
MIC [13]: 20 µg/mL (≈ 65.3 µM)
MIC [14]: 20 µg/mL (≈ 65.3 µM)
diameter of the inhibition zone (DIZ) [15]: 25 mm
diameter of the inhibition zone (DIZ) [16]: 24.1 mm
diameter of the inhibition zone (DIZ) [17]: 30 mm
diameter of the inhibition zone (DIZ) [18]: 28 mm

O=C1c2c(Cl)cccc2NC2(C(=O)Nc3ccc(Br)cc32)N1Nc1ccccc1 (stereo unspecified)
MIC [19]: 4 µg/mL (≈ 8.52 µM)
MIC [20]: < 2 µg/mL
MIC [21]: 4 µg/mL (≈ 8.52 µM)
MIC [22]: < 2 µg/mL
MIC [23]: 2 µg/mL (≈ 4.26 µM)
MIC [24]: 2 µg/mL (≈ 4.26 µM)
MIC [25]: < 2 µg/mL
MIC [26]: < 2 µg/mL
MIC [27]: 4 µg/mL (≈ 8.52 µM)
MIC [28]: 8 µg/mL (≈ 17 µM)

O=C(c1ccc(F)cc1)C1C(c2ccc(Cl)cc2)C(CO)NC12C(=O)Nc1ccccc12 (stereo unspecified)
MIC [13]: 20 µg/mL (≈ 44.4 µM)
MIC [14]: 20 µg/mL (≈ 44.4 µM)
Activity [29]: 88.1%

Cc1ccc([C@H]2[C@@]3(SC(=S)NC3=O)C3CCCN3[C@@]23C(=O)Nc2ccccc23)cc1 (stereo partly specified)
diameter of the inhibition zone (DIZ) [15]: 18 mm
diameter of the inhibition zone (DIZ) [16]: 19 mm
diameter of the inhibition zone (DIZ) [17]: 27 mm
diameter of the inhibition zone (DIZ) [18]: 27 mm

Cc1ccc2c(c1)C1(C(=O)N2)N2CSCC2C(c2ncc[nH]2)C1(C#N)C(=O)c1c[nH]c2ccccc12 (stereo unspecified)
IC50 [30]: 66.3 µM

CCOC(=O)N1C/C(=C\c2ccc(OC)cc2)C(=O)[C@@]2(C1)[C@H](c1ccc(OC)cc1)[C@H]1CCCN1[C@]21C(=O)Nc2ccccc21
MIC [31]: 0.98 µg/mL (≈ 1.61 µM)
MIC [32]: 0.015 µg/mL (≈ 0.0247 µM)
MIC [33]: inactive
MIC [34]: 15.6 µg/mL (≈ 25.7 µM)
MIC [35]: 1.95 µg/mL (≈ 3.21 µM)
MIC [36]: 0.98 µg/mL (≈ 1.61 µM)
MIC [37]: 0.49 µg/mL (≈ 0.806 µM)
MIC [38]: inactive

O=C1OCC2=C1C1(Nc3ccccc3N2)C(=O)N(Cc2ccccc2)c2ccccc21 (stereo unspecified)
IC50 [39]: 1.3 µM
IC50 [40]: 2.3 µM
IC50 [41]: 2.2 µM
IC50 [42]: 1.1 µM

O=C(c1ccc(F)cc1)C1C(c2ccc(Cl)cc2)CNC12C(=O)Nc1ccccc12 (stereo unspecified)
Activity [29]: 88.7%

Cc1ccc(C2C3CCCN3C3(C(=O)Nc4ccccc43)C2C(=O)c2ccc(-c3ccc(F)cc3F)cc2)cc1 (stereo unspecified)
MIC [1]: 12.5 µg/mL (≈ 23.4 µM)
MIC [2]: 25 µg/mL (≈ 46.8 µM)
MIC [3]: 25 µg/mL (≈ 46.8 µM)

N#CC1=C(N)Oc2c(ccc3[nH]c4ccccc4c23)C12C(=O)N(Cc1cn(Cc3ccc(C(F)(F)F)cc3)nn1)c1ccccc12 (stereo unspecified)
IC50 [11]: 61.9 µM
IC50 [12]: 3.5 µM

CCOC(=O)N1C/C(=C\c2ccc([N+](=O)[O-])cc2)C(=O)[C@@]2(C1)[C@H](c1ccc([N+](=O)[O-])cc1)[C@H]1CCCN1[C@]21C(=O)Nc2ccccc21
MIC [31]: 1.95 µg/mL (≈ 3.06 µM)
MIC [32]: 0.06 µg/mL (≈ 0.0941 µM)
MIC [33]: inactive
MIC [34]: 15.6 µg/mL (≈ 24.5 µM)
MIC [35]: 1.95 µg/mL (≈ 3.06 µM)
MIC [36]: 0.49 µg/mL (≈ 0.768 µM)
MIC [37]: 0.12 µg/mL (≈ 0.188 µM)
MIC [38]: inactive

C[C@H]1COc2c(N3CCN(C)CC3)c(F)cc3c(=O)c(C(=O)O)cn1c23.C[C@H]1COc2c(N3CCN(C)CC3)c(F)cc3c(=O)c(C(=O)O)cn1c23.O [LEVOFLOXACIN]
MIC [4]: > 64 µg/mL
MIC [5]: > 64 µg/mL

CCOC(=O)N1C/C(=C\c2ccc(F)cc2F)C(=O)[C@@]2(C1)[C@H](c1ccc(F)cc1F)[C@H]1CCCN1[C@]21C(=O)Nc2ccccc21
MIC [31]: 0.015 µg/mL (≈ 0.0242 µM)
MIC [32]: 0.015 µg/mL (≈ 0.0242 µM)
MIC [33]: inactive
MIC [34]: 1.95 µg/mL (≈ 3.15 µM)
MIC [35]: 7.81 µg/mL (≈ 12.6 µM)
MIC [36]: 1.95 µg/mL (≈ 3.15 µM)
MIC [37]: 0.03 µg/mL (≈ 0.0484 µM)
MIC [38]: inactive

CCOC(=O)C1=C(C(=O)OCC)C2(NC1(C(=O)OCC)C(=O)OCC)C(=O)Nc1ccccc12 (stereo unspecified)
IC50 [43]: 28 µM

O=C1c2ccccc2NC2(C(=O)Nc3ccc([N+](=O)[O-])cc32)N1Nc1ccccc1 (stereo unspecified)
MIC [19]: 4 µg/mL (≈ 9.97 µM)
MIC [20]: 4 µg/mL (≈ 9.97 µM)
MIC [21]: 8 µg/mL (≈ 19.9 µM)
MIC [22]: < 2 µg/mL
MIC [23]: 4 µg/mL (≈ 9.97 µM)
MIC [24]: 4 µg/mL (≈ 9.97 µM)
MIC [25]: 4 µg/mL (≈ 9.97 µM)
MIC [26]: 16 µg/mL (≈ 39.9 µM)
MIC [27]: 8 µg/mL (≈ 19.9 µM)
MIC [28]: 32 µg/mL (≈ 79.7 µM)
